This test deals with 565726-208-R1-J5-PDC complex spheroids, growth inhibition. Briefly: Anticancer human tumor 565726-208-R1-J5-PDC patient-derived pancreatic adenocarcinoma cell line growth inhibition [RAS]. Particulars: for viability, T/C: stronger effect = lower value. The method in brief:
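Agents were tested in combination matrices in half-log decrements from a top concentration at or near clinical Cmax (10 microM if undetermined). Targets were multi-cell spheroids of tumour lines plus HUVEC and MSC stromal cells.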

Where [1] appears, read: compound alone, run of 07/15/2024.

Some results are limits rather than exact numbers.
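Note: spheroids exposed to compounds for seven days before readout.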
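Throughout, for viability, T/C: 100% = DMSO vehicle control viability.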

Usually viability, T/C stands for the ratio of treated to control. A word on the IC50: it is the concentration at which inhibition is half-maximal. As for `CCn1c(-c2cccnc2C(C)OC)c2c3cc(ccc31)N1CCOC(CC(NC(=O)C(C(C)C)N(C)C(=O)C3(F)CCN(C(=O)C#CC(C)(C)N(C)C)CC3)C(=O)N3CCCC(N3)C(=O)OCC(C)(C)C2)C1` (configuration not stated), the viability, T/C (compound 0.000949 µM) was 102% [middle of 8 runs]; the viability, T/C (compound 0.003 µM) is 99.7% [middle of 8 runs]; the viability, T/C (compound 0.00949 µM) is 104% [middle of 8 runs]; the viability, T/C (compound 0.03 µM) is 103% [middle of 8 runs]; the viability, T/C (compound 0.0949 µM) was 103% [middle of 8 runs]; the viability, T/C (compound 0.3 µM) was 90% [middle of 8 runs]. For the same compound, the IC50 (compound alone, run of 07/09/2024) is greater than 300 nM.

Take `Cc1nc(N2CCC3(CC2)COC(C)C3N)c(CO)nc1Sc1ccnc(N)c1Cl` (configuration not stated) + CCn1c(-c2cc(N3CCN(C)CC3)cnc2C(C)OC)c2c3cc(ccc31)-c1csc(n1)CC(NC(=O)C1CC1C)C(=O)N1CCCC(N1)C(=O)OCC(C)(C)C2: the IC50 was 204 nM (curve of first compound, second compound 0.000949 µM); 38.7 nM (curve of first compound, second compound 0.003 µM); less than 31.6 nM (curve of first compound, second compound 0.00949 µM); less than 31.6 nM (curve of first compound, second compound 0.03 µM); less than 31.6 nM (curve of first compound, second compound 0.0949 µM); less than 31.6 nM (curve of first compound, second compound 0.3 µM). Also, the viability, T/C reads like this: (second compound 0.000949 µM, first compound 0.0316 µM) 63.1%; (second compound 0.000949 µM, first compound 0.1 µM) 53.6%; (second compound 0.000949 µM, first compound 0.316 µM) 48.3%; (second compound 0.000949 µM, first compound 1 µM) 39.5%; (second compound 0.000949 µM, first compound 3.16 µM) 33%; (second compound 0.000949 µM, first compound 10 µM) 28%. The viability, T/C reads like this: (second compound 0.003 µM, first compound 0.0316 µM) 51.3%; (second compound 0.003 µM, first compound 0.1 µM) 43.4%; (second compound 0.003 µM, first compound 0.316 µM) 34.3%; (second compound 0.003 µM, first compound 1 µM) 27.6%; (second compound 0.003 µM, first compound 3.16 µM) 29.1%; (second compound 0.003 µM, first compound 10 µM) 22%. In addition, the viability, T/C is 40.5% (second compound 0.00949 µM, first compound 0.0316 µM); 34.8% (second compound 0.00949 µM, first compound 0.1 µM); 26.1% (second compound 0.00949 µM, first compound 0.316 µM); 22.2% (second compound 0.00949 µM, first compound 1 µM); 20.9% (second compound 0.00949 µM, first compound 3.16 µM); 17.1% (second compound 0.00949 µM, first compound 10 µM). Further, the viability, T/C is 29.1% (second compound 0.03 µM, first compound 0.0316 µM); 28.4% (second compound 0.03 µM, first compound 0.1 µM); 22.2% (second compound 0.03 µM, first compound 0.316 µM); 18% (second compound 0.03 µM, first compound 1 µM); 19.8% (second compound 0.03 µM, first compound 3.16 µM); 16.9% (second compound 0.03 µM, first compound 10 µM). The viability, T/C is 22.9% (second compound 0.0949 µM, first compound 0.0316 µM); 21.2% (second compound 0.0949 µM, first compound 0.1 µM); 20.1% (second compound 0.0949 µM, first compound 0.316 µM); 15.9% (second compound 0.0949 µM, first compound 1 µM); 18.3% (second compound 0.0949 µM, first compound 3.16 µM); 17.2% (second compound 0.0949 µM, first compound 10 µM). Moreover, the viability, T/C runs as follows: (second compound 0.3 µM, first compound 0.0316 µM) 24.4%; (second compound 0.3 µM, first compound 0.1 µM) 20%; (second compound 0.3 µM, first compound 0.316 µM) 17%; (second compound 0.3 µM, first compound 1 µM) 13.8%; (second compound 0.3 µM, first compound 3.16 µM) 16.2%; (second compound 0.3 µM, first compound 10 µM) 15.5%.

Turning to `C=CC(=O)N1CCN(c2nc(OCC3CCCN3C)nc3c(F)c(-c4nc(N)cc(C)c4C(F)(F)F)c(Cl)cc23)C(C)C1` (configuration not stated), under “compound 0.1 µM”, the viability, T/C is 104% [middle of 12 runs]. For the same compound, the IC50 is greater than 1000 nM under setting [1] and greater than 1000 nM (curve of compound).

`C#Cc1c(F)ccc2cc(O)cc(-c3ncc4c(N5CC6CCC(C5)N6)nc(OCC56CCCN5CC(F)C6)nc4c3F)c12` (configuration not stated): the viability, T/C runs as follows: (compound 0.0316 µM) 104% [middle of 8 runs]; (compound 0.1 µM) 101% [middle of 8 runs]; (compound 0.316 µM) 94.6% [middle of 8 runs]; (compound 1 µM) 84.3% [middle of 8 runs]; (compound 3.16 µM) 78.7% [middle of 8 runs]. Besides, the IC50 under setting [1] is greater than 10000 nM.

With `Cc1nc(N2CCC3(CC2)COC(C)C3N)c(CO)nc1Sc1ccnc(N)c1Cl` (configuration not stated), the viability, T/C is 106% [middle of 4 runs] (compound 0.0316 µM), 85.7% [middle of 4 runs] (compound 0.316 µM) and 81.1% [middle of 4 runs] (compound 1 µM). Also, the IC50 (curve of compound) is greater than 10000 nM.

Source of the values: PubChem BioAssay AID2060899 (Molecular Pharmacology Branch, DTP, NCI, 2025).
